From patent US20160375155A1, “Collagen Imaging Compositions” (Collagen Medical, LLC, priority 2015, published 2016)
Where two headings read alike, the source gives them in different places. Bridge positions count the residues as written; N and C are the ends. Square brackets hold non-standard residues; d marks the D form. Peptide text beside a SMILES is read from it. * marks the point of attachment. X1 = O=C(O)CN1CCN(CC(=O)O)CCN([C@H](CCC(=O)*)C(=O)O)CCN(CC(=O)O)CC1; Bip = N[C@@H](Cc1ccc(-c2ccccc2)cc1)C(=O)O

Assays:
[1] = target: T1, rat collagen (acid soluble, type I, rat tail) (Rattus norvegicus, UniProt P02454+P02466); test: Collagen binding assay, dried rat collagen plate; conditions: 37° C., pH 7.4; collagen 5 μM; fit to 1 binding site
T1 construct: rat collagen (acid soluble, type I, rat tail, Millipore Inc, cat#08-115); purchased Millipore Inc 08-115; host or cells: rat tail
Method: 10 ml of a 3.79 mg/mL solution of rat collagen (acid soluble, type I, rat tail, Millipore Inc, cat#08-115) is dialyzed against 10 mM Phosphate (NaH2PO4), pH 4.2 at 4° C. with three changes of the dialysis buffer.
Ice-cold 1×PBS pH 10.8 is added to the collagen solution for a final collagen concentration of 10 μM, pH 7.4. Collagen solutions are gelled and dried down in the wells of a 96 well microtiter plate (Corning Polystyrene Flat Bottom, cat#3641). 70 μl of 10 μM collagen is aliquoted into each well in every other lane in the plate (48 wells) and the plate is incubated at 37° C. for 18 hours to form a gel and evaporate to dryness. […] The final well content of gelled collagen is measured by determination of hydroxyproline and is around 180 μg/ml.
(§1) a serial dilution of 0.2 μM-30 μM of the peptide chelate is prepared in PBS, pH 7.4 (˜300 μL of solution for each concentration). […] The concentration of free, unbound compound in the sample supernatants and the concentration of compound in the reserved (total) sample are determined by ICP-MS (Agilent 7500, gadolinium concentration). The concentration of compound bound to collagen is determined as [bound]=[total]−[unbound].
(§2) The binding of compounds to human, rat and dog collagen (5 μM) was measured over the concentration range 0.2-5 μM of Comp ID Nos.: 1-4. […]

[2] = Relaxivity in PBS (Bruker mq60, 60 MHz); format: physicochemical; conditions: pH 7.4 PBS at 1.4 T, 37° C.
Method: The relaxivity of Compound ID Nos. 1, 2 and 4 were determined in PBS at 37° C. using a Bruker mq60 spectrometer operating at 60 MHz (1.4 tesla). Samples were equilibrated at concentrations ranging from 0-200 μM for at least 30 minutes at 37° C. T1 was measured using an inversion recovery sequence. Relaxivities were calculated by subtracting the relaxation rate of the buffer […] and then dividing the result by the concentration of Compound.

myocardial collagen = conditions: rat MI model, healthy and infarcted heart
Method: Myocardial infarction was induced in Sprague Dawley rats by occlusion of the left anterior descending coronary artery followed by reperfusion. The rats were anesthetized with an intraperitoneal (i.p.) injection of 100 μg pentobarbital sodium per gram body weight and a thorocotamy was performed. The pericardium was removed and the left anterior artery was sutured with a 7.0 silk suture for 60 minutes after which reperfusion was established.
Animals were sacrificed at 60 minutes post-injection and the heart removed and sectioned for analysis.
The slope for this correlation is a measure of efficacy.

[3] = test system: acute and chronic myocardial infarct (fibrosis); format: in vivo, canine; conditions: for CNR between infarct and blood: Compound ID No. 1 0.0075 mmol/kg, extracellular gadolinium 0.2 mmol/kg
Source text: An experimental protocol was developed to test the ability of Compound ID No. 1 to differentiate acute from chronic myocardial infarction in an in-vivo large animal (canine) model. In this model, early following acute myocardial infarction, pathologic fibrosis has not fully developed within the infarct zone (fibrosis-poor), whereas in chronic MI (˜8 weeks following MI), dense fibrosis fully replaced necrotic myocardium (fibrosis-rich).
In the myocardial fibrosis canine model, a vascular occluder was placed surgically around the left anterior descending coronary artery (LAD) to allow occlusion and reperfusion. Two animals were studied following acute MI and two additional animals were studied both following acute MI, and chronically at 8 weeks. The LAD vessel was completely occluded for 70-90 minutes and then released to allow reperfusion. The chest was sutured closed, and the animal was allowed to recover. Imaging was performed on a 3 T clinical scanner in an acute (<1 week, minimal fibrosis expected in acute necrosis) and chronic (8 weeks, healing complete, necrotic myocardium replaced by dense collagenous scar) time point after infarction. For each time point, the animals undergo 2 scans separated by 48 hours with conventional gadolinium contrast (0.2 mmol/kg GdDTPA) and Compound ID No. 1 (0.0075 mmol/kg).
Imaging was performed on a 3 T clinical scanner (Siemens Verio). Breath holding was achieved by temporarily turning off the animal ventilator, and all images were ECG gated. Standard short and long axis cine imaging was performed throughout the left ventricle to identify left ventricular function and regional wall motion abnormalities. Delayed enhancement imaging (segmented 2D inversion recovery gradient echo) was performed prior to and serially following Compound ID No. 1 administration. Two strategies were employed: (1) a fixed inversion time was chosen to null pre-contrast myocardium (TI˜650 ms), and (2) a variable inversion time set to null post-contrast myocardium as is performed in traditional delayed enhancement imaging.
After imaging, animals were euthanized and post mortem analysis of myocardium was performed. Tissue was assessed grossly by histopathologic staining with triphenyltetrazolium chloride for myocardial infarction, and microscopically with Masson's trichrome staining for fibrosis. Additionally quantitative tissue analysis for hydroxyproline was used to measure total collagen content in tissue and compared to tissue gadolinium concentration by inductively coupled plasma-mass spectrometry. MR data was analyzed quantitatively for conspicuity of infarction and image quality as well as contrast to noise ratio (CNR) for infarct-normal myocardium and infarct-blood.

[4] = target: Native canine Collagen Type I and III protein; test: Collagen binding assay, dried dog collagen plate; conditions: 37° C., pH 7.4; collagen 5 μM; fit to 1 binding site
Method: Canine collagen (Native canine Collagen Type I and III protein, YO protein AB, cat#739) is dissolved in 0.5 M acetic acid at 3.3 mg/ml by vortexing and shaking overnight at 4° C. The solution is then dialyzed against 10 mM Phosphate (NaH2PO4), pH 4.2 at 4° C. with three changes of the dialysis buffer.
Ice-cold 1×PBS pH 10.8 is added to the collagen solution for a final collagen concentration of 10 μM, pH 7.4. Collagen solutions are gelled and dried down in the wells of a 96 well microtiter plate (Corning Polystyrene Flat Bottom, cat#3641). 70 μl of 10 μM collagen is aliquoted into each well in every other lane in the plate (48 wells) and the plate is incubated at 37° C. for 18 hours to form a gel and evaporate to dryness. Ungelled collagen is removed by washing the collagen films with 200 μl 1×PBS pH 7.4 (four times, 15 min per wash). The thin collagen fibril film remains, coating the bottom of each well. After washing by PBS the plate is again dried at 37° C. for 2 hours and is stored at −20° C. The final well content of gelled collagen is measured by determination of hydroxyproline and is around 180 μg/ml.
a serial dilution of 0.2 μM-30 μM of the peptide chelate is prepared in PBS, pH 7.4 (˜300 μL of solution for each concentration). 90 μl of each concentration is also reserved in a HPLC glass vial as a sample to measure the total concentration. 140 μL of each dilution of peptide chelate is added to wells containing and non-containing collagen (control for nonspecific plastic binging). The plate is then incubated on a shaker table (300 rpm) for 2 hours at room temperature to allow the compound to bind. […] The concentration of free, unbound compound in the sample supernatants and the concentration of compound in the reserved (total) sample are determined by ICP-MS (Agilent 7500, gadolinium concentration). The concentration of compound bound to collagen is determined as [bound]=[total]−[unbound].
as §2

human type I collagen = target: T2, human type I collagen (Homo sapiens, UniProt P02452+P08123); test: Collagen binding assay, dried human collagen plate; conditions: 37° C., pH 7.4; collagen 5 μM; fit to 1 binding site
T2 construct: purchased Advanced Biomatrix 5007-A
Method: 10 ml of a solution of 3 mg/ml of human type I collagen (VitroCol solution, Advanced Biomatrix, cat#5007-A) is dialyzed against 10 mM Phosphate (NaH2PO4), pH 4.2 at 4° C. with three changes of the dialysis buffer. The protein concentration is determined by liquid chromatography determination of hydroxyproline (P. Hutson, J. Chromatogr. B, 791 (2003) 427-430).
Ice-cold 1×PBS pH 10.8 is added to the collagen solution for a final collagen concentration of 10 μM, pH 7.4. Collagen solutions are gelled and dried down in the wells of a 96 well microtiter plate (Corning Polystyrene Flat Bottom, cat#3641). […] The final well content of gelled collagen is measured by determination of hydroxyproline and is around 180 μg/ml.
as §1, §2

T1 sequence (P02454 152-1207 limits assumed): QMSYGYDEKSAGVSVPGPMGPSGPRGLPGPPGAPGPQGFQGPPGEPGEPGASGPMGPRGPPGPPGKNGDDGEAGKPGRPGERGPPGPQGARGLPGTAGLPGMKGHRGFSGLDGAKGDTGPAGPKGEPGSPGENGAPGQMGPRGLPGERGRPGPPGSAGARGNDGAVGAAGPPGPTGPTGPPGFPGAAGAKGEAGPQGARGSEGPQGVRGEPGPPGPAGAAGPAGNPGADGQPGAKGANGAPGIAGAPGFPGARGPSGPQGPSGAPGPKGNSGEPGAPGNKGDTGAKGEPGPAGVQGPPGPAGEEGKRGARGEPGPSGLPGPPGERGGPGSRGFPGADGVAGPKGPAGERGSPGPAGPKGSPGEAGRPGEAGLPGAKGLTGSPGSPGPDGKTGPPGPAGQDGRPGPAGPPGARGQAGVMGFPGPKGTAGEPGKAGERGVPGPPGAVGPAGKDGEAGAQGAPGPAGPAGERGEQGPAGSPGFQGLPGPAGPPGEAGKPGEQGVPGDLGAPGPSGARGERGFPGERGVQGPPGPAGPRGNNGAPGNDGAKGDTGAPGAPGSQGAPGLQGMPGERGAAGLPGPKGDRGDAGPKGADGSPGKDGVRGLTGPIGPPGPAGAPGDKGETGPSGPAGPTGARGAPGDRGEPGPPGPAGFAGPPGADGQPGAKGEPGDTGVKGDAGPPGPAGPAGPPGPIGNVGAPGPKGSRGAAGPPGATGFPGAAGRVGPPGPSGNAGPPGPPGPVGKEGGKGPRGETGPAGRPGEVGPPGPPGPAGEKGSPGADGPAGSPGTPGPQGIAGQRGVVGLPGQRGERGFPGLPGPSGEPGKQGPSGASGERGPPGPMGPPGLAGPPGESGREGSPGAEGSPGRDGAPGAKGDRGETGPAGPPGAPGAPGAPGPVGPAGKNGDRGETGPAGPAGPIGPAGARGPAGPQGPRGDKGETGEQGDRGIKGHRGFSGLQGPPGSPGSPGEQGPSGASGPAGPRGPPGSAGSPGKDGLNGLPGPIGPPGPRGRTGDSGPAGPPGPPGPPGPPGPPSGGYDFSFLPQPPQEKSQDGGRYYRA
T1 sequence (P02466 86-1125 limits assumed): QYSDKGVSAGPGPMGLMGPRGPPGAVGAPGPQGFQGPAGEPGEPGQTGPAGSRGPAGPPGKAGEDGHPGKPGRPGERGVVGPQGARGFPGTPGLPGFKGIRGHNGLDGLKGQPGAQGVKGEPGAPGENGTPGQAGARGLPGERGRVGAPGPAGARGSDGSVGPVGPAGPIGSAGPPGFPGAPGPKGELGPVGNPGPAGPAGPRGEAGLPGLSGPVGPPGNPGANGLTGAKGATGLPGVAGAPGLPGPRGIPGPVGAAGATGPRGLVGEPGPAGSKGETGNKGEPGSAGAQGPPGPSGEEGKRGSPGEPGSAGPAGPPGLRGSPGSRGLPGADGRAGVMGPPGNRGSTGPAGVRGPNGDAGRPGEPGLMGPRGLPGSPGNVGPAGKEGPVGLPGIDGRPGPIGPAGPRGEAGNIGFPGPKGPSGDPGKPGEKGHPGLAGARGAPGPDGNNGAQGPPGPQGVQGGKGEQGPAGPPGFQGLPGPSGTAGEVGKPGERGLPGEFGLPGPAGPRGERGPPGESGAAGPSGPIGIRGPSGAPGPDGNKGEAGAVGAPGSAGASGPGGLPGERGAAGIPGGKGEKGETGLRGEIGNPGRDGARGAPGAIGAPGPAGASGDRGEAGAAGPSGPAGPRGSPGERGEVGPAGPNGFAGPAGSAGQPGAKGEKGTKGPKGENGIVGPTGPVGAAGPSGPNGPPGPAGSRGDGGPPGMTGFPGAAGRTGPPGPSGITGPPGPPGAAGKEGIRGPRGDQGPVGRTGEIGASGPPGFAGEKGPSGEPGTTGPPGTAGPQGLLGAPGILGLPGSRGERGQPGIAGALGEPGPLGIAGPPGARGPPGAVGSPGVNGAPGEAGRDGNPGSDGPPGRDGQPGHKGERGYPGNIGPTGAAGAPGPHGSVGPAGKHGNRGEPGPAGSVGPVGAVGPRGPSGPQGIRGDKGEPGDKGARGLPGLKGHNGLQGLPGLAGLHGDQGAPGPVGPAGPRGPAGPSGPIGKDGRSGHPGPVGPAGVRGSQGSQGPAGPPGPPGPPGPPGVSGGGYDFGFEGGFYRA
T2 sequence (P02452 162-1218 limits assumed): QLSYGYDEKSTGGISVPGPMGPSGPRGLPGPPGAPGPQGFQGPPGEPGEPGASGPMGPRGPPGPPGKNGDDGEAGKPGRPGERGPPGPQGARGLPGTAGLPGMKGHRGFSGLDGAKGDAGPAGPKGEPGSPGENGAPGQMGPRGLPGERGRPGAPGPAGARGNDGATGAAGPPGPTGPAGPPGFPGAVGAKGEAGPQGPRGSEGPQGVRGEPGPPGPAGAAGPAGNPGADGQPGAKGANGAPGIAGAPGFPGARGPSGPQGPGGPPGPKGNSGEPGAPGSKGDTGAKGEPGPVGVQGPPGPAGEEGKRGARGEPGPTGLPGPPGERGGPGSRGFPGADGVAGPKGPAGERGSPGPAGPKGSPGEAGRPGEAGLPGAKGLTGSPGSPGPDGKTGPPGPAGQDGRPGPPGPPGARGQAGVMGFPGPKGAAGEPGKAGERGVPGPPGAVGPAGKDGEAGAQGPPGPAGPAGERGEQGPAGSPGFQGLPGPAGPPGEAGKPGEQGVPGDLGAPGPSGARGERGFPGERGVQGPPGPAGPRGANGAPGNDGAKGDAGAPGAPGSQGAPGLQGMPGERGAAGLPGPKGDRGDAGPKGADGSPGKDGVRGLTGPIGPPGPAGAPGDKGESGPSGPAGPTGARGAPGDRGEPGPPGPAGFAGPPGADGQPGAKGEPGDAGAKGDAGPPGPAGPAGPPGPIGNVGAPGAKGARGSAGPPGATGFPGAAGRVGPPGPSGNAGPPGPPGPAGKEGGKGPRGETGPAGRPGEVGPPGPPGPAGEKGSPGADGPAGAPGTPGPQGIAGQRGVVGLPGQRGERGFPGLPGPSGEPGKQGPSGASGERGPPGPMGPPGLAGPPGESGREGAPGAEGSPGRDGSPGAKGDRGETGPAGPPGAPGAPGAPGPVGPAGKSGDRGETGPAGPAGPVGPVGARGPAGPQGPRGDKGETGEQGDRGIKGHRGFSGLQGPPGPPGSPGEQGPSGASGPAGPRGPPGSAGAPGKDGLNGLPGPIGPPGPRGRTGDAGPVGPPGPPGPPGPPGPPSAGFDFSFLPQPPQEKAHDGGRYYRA
T2 sequence (P08123 80-1119 limits assumed): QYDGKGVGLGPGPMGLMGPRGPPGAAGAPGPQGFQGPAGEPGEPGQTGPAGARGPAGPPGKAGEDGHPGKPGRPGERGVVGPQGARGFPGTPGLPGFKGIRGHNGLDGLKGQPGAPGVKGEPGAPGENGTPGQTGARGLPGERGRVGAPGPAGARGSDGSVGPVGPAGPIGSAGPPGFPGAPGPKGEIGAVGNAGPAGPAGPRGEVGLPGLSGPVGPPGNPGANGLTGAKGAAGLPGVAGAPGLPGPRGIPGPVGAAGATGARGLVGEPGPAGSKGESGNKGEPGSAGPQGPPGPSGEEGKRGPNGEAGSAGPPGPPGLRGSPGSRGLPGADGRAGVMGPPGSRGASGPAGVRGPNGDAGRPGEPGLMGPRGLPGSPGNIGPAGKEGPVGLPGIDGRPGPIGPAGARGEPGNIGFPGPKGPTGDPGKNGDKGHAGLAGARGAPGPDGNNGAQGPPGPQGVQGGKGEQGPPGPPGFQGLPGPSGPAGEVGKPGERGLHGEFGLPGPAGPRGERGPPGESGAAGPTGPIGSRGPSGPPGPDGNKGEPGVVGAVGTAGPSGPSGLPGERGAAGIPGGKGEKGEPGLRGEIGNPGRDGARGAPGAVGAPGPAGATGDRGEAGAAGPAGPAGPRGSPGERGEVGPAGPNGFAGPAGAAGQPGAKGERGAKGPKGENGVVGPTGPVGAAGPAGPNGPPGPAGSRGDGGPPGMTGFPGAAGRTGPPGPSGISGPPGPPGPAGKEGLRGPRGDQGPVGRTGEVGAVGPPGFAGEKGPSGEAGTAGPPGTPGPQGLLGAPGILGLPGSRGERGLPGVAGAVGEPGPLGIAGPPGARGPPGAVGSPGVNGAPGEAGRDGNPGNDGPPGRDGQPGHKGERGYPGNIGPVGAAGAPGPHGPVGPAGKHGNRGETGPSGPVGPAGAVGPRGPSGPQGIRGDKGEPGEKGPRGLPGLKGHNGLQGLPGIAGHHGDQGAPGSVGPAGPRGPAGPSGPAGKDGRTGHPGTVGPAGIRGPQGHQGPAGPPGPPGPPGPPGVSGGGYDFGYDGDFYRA

SMILES | Kd [1] [µM] | R1 (relaxivity) [2] [mM⁻¹ s⁻¹] | calculated slope, hydroxyproline vs. gadolinium concentration (myocardial collagen) | MR image uptake in scar vs healthy myocardium ([3]; chronic myocardial infarction, FIG. 25b) | Kd [4] [µM] | Kd (human type I collagen) [µM] | CNR between infarct and blood ([3]; acute MI) | CNR between infarct and blood ([3]; chronic MI (8 weeks))
CC(C)C[C@H](NC(=O)[C@@H]1CSSC[C@H](NC(=O)[C@H](Cc2c[nH]cn2)NC(=O)[C@H](Cc2c[nH]c3ccccc23)NC(=O)[C@H](CCCCNC(=O)CC[C@H](C(=O)O)N2CCN(CC(=O)O)CCN(CC(=O)O)CCN(CC(=O)O)CC2)NC(=O)CC[C@H](C(=O)O)N2CCN(CC(=O)O)CCN(CC(=O)O)CCN(CC(=O)O)CC2)C(=O)N[C@@H]([C@@H](C)O)C(=O)N[C@@H]([C@@H](C)O)C(=O)N[C@@H](CCCCNC(=O)CC[C@H](C(=O)O)N2CCN(CC(=O)O)CCN(CC(=O)O)CCN(CC(=O)O)CC2)C(=O)N[C@@H](Cc2ccccc2)C(=O)N2CCC[C@H]2C(=O)N[C@@H](Cc2c[nH]cn2)C(=O)N[C@@H](Cc2c[nH]cn2)C(=O)N[C@@H](Cc2ccc(O)cc2)C(=O)N1)C(=O)N[C@@H](Cc1ccc(O)cc1)C(=O)N[C@@H](Cc1ccc(-c2ccccc2)cc1)C(N)=O [Compound ID No. 2] (X1-K(X1)WHCTTK(X1)FPHHYCLY[Bip]-NH2; disulfide 4-13) | 20.6 | 42.9 | 3184 | early uptake | 4.9 | 4.9 |  | 
CC(C)[C@H](NC(=O)[C@@H]1CSSC[C@H](NC(=O)[C@H](Cc2c[nH]cn2)NC(=O)[C@H](Cc2c[nH]c3ccccc23)NC(=O)[C@H](CCCCNC(=O)CC[C@H](C(=O)O)N2CCN(CC(=O)O)CCN(CC(=O)O)CCN(CC(=O)O)CC2)NC(=O)CC[C@H](C(=O)O)N2CCN(CC(=O)O)CCN(CC(=O)O)CCN(CC(=O)O)CC2)C(=O)N[C@@H](Cc2ccc(O)cc2)C(=O)N[C@@H]([C@@H](C)O)C(=O)N[C@@H](CCCCNC(=O)CC[C@H](C(=O)O)N2CCN(CC(=O)O)CCN(CC(=O)O)CCN(CC(=O)O)CC2)C(=O)N[C@@H](Cc2ccccc2)C(=O)N2CCC[C@H]2C(=O)N[C@@H](Cc2c[nH]cn2)C(=O)N[C@@H](Cc2c[nH]cn2)C(=O)N[C@@H](Cc2ccc(O)cc2)C(=O)N1)C(=O)N[C@@H](Cc1ccc(O)cc1)C(=O)N[C@@H](Cc1ccc(-c2ccccc2)cc1)C(N)=O [Compound ID No. 4] (X1-K(X1)WHCYTK(X1)FPHHYCVY[Bip]-NH2; disulfide 4-13) | 4.6 | 51.2 | 3057 |  | 2 | 9.6 |  | 
O=C([O-])CN(CCN(CC(=O)[O-])CC(=O)O)CCN(CC(=O)[O-])CC(=O)O.[Gd+3] [extracellular gadolinium, gadolinium diethylenetriaminepentaacetate, reference compound] |  |  |  |  |  |  | 6.3±3.4 | 5±1.3
